“And” between values parts separate entries of the source, which are not always exact repeats. Identical values can stand only once.
What was measured:
C. jejuni ATCC 33560 WT = assay type: cell-based, Campylobacter jejuni
Procedure: Invasion assay was performed as described previously with modifications. Briefly, prior to bacterial infection, a monolayer of 1 × 10^5 Caco-2 cells was prepared in a 24-well tissue culture plate and incubated in DMEM with 10% FBS, and 0.6% CMC at 37 °C under 5% CO2. The cultures of wild-type C. jejuni strain with or without BMK-S301 (100 μM) and KL-L9P (1 μM) were prepared, as described above (TEM). The bacterial suspensions were diluted in DMEM with 10% FBS and 0.6% CMC, and then added onto the cell monolayer at a multiplicity of infection (MOI) of 100. After a 3 h incubation, the cells were incubated with 250 μg/mL of gentamicin in the fresh pre-warmed medium for 2 h to kill any extracellular bacteria. The wells were washed three times with 1 × PBS, and treated with 0.1% Triton X-100 in 1 × PBS for 15 min. After dilution with 1 × PBS, the suspensions were plated on MH agar to enumerate the CFU. […]

Caco-2 epithelial cells = experiment: Cytotoxicity assay (LDH release); assay type: cell-based; conditions: 3 h; for Cytotoxicity test (LDH release, Triton X-100 lysis = 100%): single replicates, source data Fig. 5c
Procedure: To examine the cytotoxicity of BMK-[…], the lactate dehydrogenase (LDH) activity was measured using Cytotoxicity Detection Kit^PLUS (LDH; Roche, Switzerland) according to the manufacturer's instructions. Briefly, the monolayers of Caco-2 cells were prepared in a 96 well tissue culture plate and incubated in Dulbecco's modified-eagle medium (DMEM; ATCC) with 10% fetal bovine serum (FBS; Invitrogen), and 0.6% carboxymethylcellulose (CMC) at 37 °C under 5% CO2. […] The 2% Triton X-100 was used to release all LDH of Caco-2 cell as a positive control.

CC(=O)N[C@@H](Cc1ccc(S(N)(=O)=O)cc1)C(=O)N[C@H](C)C(=O)NO [BMK-S301]
invasion ability of WT C. jejuni (C. jejuni ATCC 33560 WT; 100 μM BMK-S301 and 1 μM KL-L9P, high-viscosity medium, 3 h after infection): decreased compared to that of the untreated C. jejuni | Invasion assay (intracellular bacteria, relative) (C. jejuni ATCC 33560 WT; BMK-S0301 100 μM with MAP 1 μM, single replicates, source data Fig. 5d): 90.1581 and 72.6517 and 79.6542 and 66.8677 and 113.675 and 78.0123 and 88.3559 and 93.1319 and 83.5799 | Cytotoxicity test (LDH release, Triton X-100 lysis = 100%) (Caco-2 epithelial cells; 10 μM): 0% (5×) and 4.598% | Cytotoxicity test (LDH release, Triton X-100 lysis = 100%) (Caco-2 epithelial cells; 100 μM): 2.466% and 0% (5×) | toxicity to Caco-2 cells (Caco-2 epithelial cells; LDH release, 10 or 100 μM): not toxic
